Measurements reported in patent US20140341813A1, “INDOCYANINE GREEN-CONTAINING PARTICLE AND METHOD OF PRODUCING THE PARTICLE” (CANON KABUSHIKI KAISHA, priority 2013, published 2014).

How the values were obtained:
rat [1] = details: intravenous injection; cited from earlier work
Water solubility of urea = type: physicochemical; details: calculated from water solubility and molecular weight 60.06
[2] = Spectral shift of ICG aqueous solutions before and after heating (J-aggregate formation and suppression); type: physicochemical
Description: FIG. 4 and FIG. 5 show the results of wavelength shifts based on additive concentration series. […] The axis of abscissa of each square indicates a wavelength, and values at its left and right ends are 500 nm and 950 nm, respectively, and the axis of ordinate thereof indicates an absorbance and its scale is arbitrary. The additive in this case refers to urea.
A third square from the left end corresponds to a solution to which the additive is added at a concentration one-half as high as that of the second square.
A second square from the left end corresponds to a 1.5 mM ICG aqueous solution, and an upper stage and a lower stage show spectra before and after the heating, respectively. A third square corresponds to an ICG aqueous solution having a concentration one-half as high as that of the second square.

mouse = details: intravenous injection; cited from earlier work
rat [3] = experiment: Urea 50% lethal dose LD50, oral
rat [4] = details: oral; cited from earlier work

J-aggregate formation of ICG in citric acid after heating ([2]; 1.5 mM ICG, citric acid 100 mM or less, free of urea, 60° C. for 30 minutes)	citric acid concentration above which agglomeration precipitation occurs ([2]; 1.5 mM ICG, free of urea, 60° C. for 30 minutes)	SMILES	LD50 (rat [1])	amount of urea that dissolves (molar) (Water solubility of urea)	J-aggregation of ICG after heating with urea added ([2]; 1.5 mM ICG aqueous solution + 100 mM urea, heating at 60° C. for 30 minutes)	formation of the H-aggregate of ICG (absorption around 700 nm) with urea added ([2]; 1.5 mM ICG, urea added)	LD50 (mouse)	ratio of urea amount in 10 ml of injection at 10 M to LD50 in terms of a body weight of 50 kg (rat [3]; 6.006 g/425 g)	50% lethal dose converted in terms of a body weight of 50 kg (rat [3]; 8.5 g/kg × 50 kg) [g]	50% lethal dose LD50 (rat [4])
–	–	NC(N)=O [urea]	around 5,000 mg/kg	up to 17.9 M	the J-aggregation is suppressed	suppresses the formation of the H-aggregate	around 5,000 mg/kg	1.41×10^−2	425	8,500 mg/kg
a J-aggregate is formed	higher than 12.5 mM	O=C(O)CC(O)(CC(=O)O)C(=O)O [citric acid]	–	–	–	–	–	–	–	–
